In publication PMC6137146, “A small molecule targeting myoferlin exerts promising anti-tumor effects on breast cancer” (Nature Communications, 2018):

Biological target: T1, myoferlin (MYOF) (Homo sapiens, UniProt Q9NZM1)
T1 construct: C2D domain (F3 construct, amino acids 1116–1272, GST fusion in pGEX4T-1; ~44 kDa in SPR)
T1 sequence (Q9NZM1 1116-1272): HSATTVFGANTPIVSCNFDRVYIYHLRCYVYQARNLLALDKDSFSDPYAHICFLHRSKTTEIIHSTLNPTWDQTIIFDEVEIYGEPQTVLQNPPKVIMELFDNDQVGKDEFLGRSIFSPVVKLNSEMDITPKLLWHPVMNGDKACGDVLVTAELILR
Assay: SPR (Biacore X-100, C2D immobilized on CM5 chip); supported by competition pull-down with WJ460-biotin
Assay type: binding

COc1ccccc1N1C(=O)CSC1c1cccc(C(=O)NCCCCc2ccccc2)c1 (stereo not shown) [WJ460]
Kd: ~1330 nM
